Measured values published in the NIST ThermoML archive (doi:10.1016/j.tca.2011.06.020).

Assays:
[1] = xn = mol fraction of the nth substance listed; details: 101 kPa, Liquid; for speed of sound: Sing-around technique in a fixed-path interferometer; for mass density: Vibrating tube method
[2] = excess molar enthalpy (molar enthalpy of mixing); xn = mol fraction of the nth substance listed; details: 308.15 K, 101 kPa, Liquid, Drop calorimetry

Cc1ccccc1N [2-methylaniline] + C1CCOCC1
[1]
Details | mass density, 298.15 K [kg/m3] | mass density, 303.15 K [kg/m3] | mass density, 308.15 K [kg/m3] | speed of sound, 298.15 K [m/s] | speed of sound, 303.15 K [m/s] | speed of sound, 308.15 K [m/s]
x1 = 0.0732 | 890.691 | 885.73 | 880.749 | 1296.4 | 1274.1 | 1252.5
x1 = 0.1342 | 899.769 | 894.897 | 890.021 | 1318.6 | 1296.8 | 1275.8
x1 = 0.1768 | 905.846 | 900.991 | 896.174 | 1334 | 1312.5 | 1292
x1 = 0.2207 | 911.867 | 907.057 | 902.258 | 1349.8 | 1328.6 | 1308.5
x1 = 0.2721 | 918.66 | 913.86 | 909.112 | 1368.2 | 1347.1 | 1327.6
x1 = 0.3328 | 926.351 | 921.578 | 916.872 | 1389.3 | 1368.7 | 1349.5
x1 = 0.3562 | 929.219 | 924.445 | 919.758 | 1397.3 | 1376.9 | 1357.8
x1 = 0.3901 | 933.275 | 928.536 | 923.89 | 1409 | 1388.5 | 1369.8
x1 = 0.4288 | 937.818 | 933.094 | 928.469 | 1421.8 | 1401.6 | 1383.1
x1 = 0.4567 | 940.995 | 936.325 | 931.715 | 1431 | 1411.1 | 1392.3
x1 = 0.5014 | 945.986 | 941.37 | 936.823 | 1445.5 | 1425.7 | 1407.2
x1 = 0.5362 | 949.788 | 945.194 | 940.693 | 1456.6 | 1437 | 1418.2
x1 = 0.5982 | 956.336 | 951.867 | 947.455 | 1475.7 | 1456.5 | 1437.6
x1 = 0.6243 | 959.04 | 954.607 | 950.235 | 1483.6 | 1464.7 | 1445.7
x1 = 0.6644 | 963.103 | 958.737 | 954.427 | 1495.7 | 1477 | 1457.6
x1 = 0.7125 | 967.87 | 963.596 | 959.361 | 1510.2 | 1491.3 | 1471.8
x1 = 0.7703 | 973.454 | 969.292 | 965.131 | 1527.4 | 1508.7 | 1488.6
x1 = 0.8025 | 976.501 | 972.384 | 968.276 | 1537 | 1518.1 | 1497.9
x1 = 1 | 994.351 | 990.224 | 986.069 | 1602.6 | 1577.8 | 1558.4

Cc1ccccc1N [2-methylaniline] + CNC=O
[1]
Details | mass density, 298.15 K [kg/m3] | mass density, 303.15 K [kg/m3] | mass density, 308.15 K [kg/m3] | speed of sound, 298.15 K [m/s] | speed of sound, 303.15 K [m/s] | speed of sound, 308.15 K [m/s]
x1 = 0.0656 | 1000.18 | 995.882 | 991.55 | 1454.3 | 1438.4 | 1423.3
x1 = 0.1258 | 1000.98 | 996.704 | 992.418 | 1472.4 | 1456.3 | 1440.9
x1 = 0.1673 | 1001.39 | 997.124 | 992.87 | 1484.1 | 1467.8 | 1452.2
x1 = 0.2127 | 1001.71 | 997.464 | 993.254 | 1496 | 1479.7 | 1463.8
x1 = 0.2466 | 1001.88 | 997.65 | 993.459 | 1504.4 | 1488.2 | 1471.9
x1 = 0.2789 | 1001.99 | 997.753 | 993.588 | 1512.1 | 1495.7 | 1479.4
x1 = 0.3081 | 1002.03 | 997.811 | 993.675 | 1518.6 | 1502.3 | 1485.7
x1 = 0.3356 | 1002.04 | 997.839 | 993.709 | 1524.4 | 1508.2 | 1491.4
x1 = 0.3898 | 1001.96 | 997.768 | 993.664 | 1535.2 | 1518.9 | 1501.9
x1 = 0.4383 | 1001.79 | 997.624 | 993.525 | 1544 | 1527.6 | 1510.4
x1 = 0.4802 | 1001.56 | 997.416 | 993.334 | 1551.1 | 1534.6 | 1517.2
x1 = 0.5269 | 1001.25 | 997.104 | 993.02 | 1558.2 | 1541.5 | 1524.1
x1 = 0.5599 | 1000.97 | 996.843 | 992.76 | 1562.9 | 1545.9 | 1528.5
x1 = 0.6006 | 1000.59 | 996.484 | 992.392 | 1568.2 | 1551.1 | 1533.6
x1 = 0.6519 | 1000.02 | 995.935 | 991.837 | 1574.4 | 1556.7 | 1539.2
x1 = 0.7244 | 999.105 | 995.043 | 990.907 | 1582.2 | 1563.4 | 1546
x1 = 0.7904 | 998.148 | 994.083 | 989.937 | 1588.2 | 1568.3 | 1550.9
x1 = 0.8485 | 997.204 | 993.14 | 988.977 | 1592.8 | 1571.9 | 1554.2
x1 = 1 | 994.351 | 990.224 | 986.069 | 1602.6 | 1577.8 | 1558.4

[2]
Details | excess molar enthalpy [kcal/mol]
x1 = 0.0486 | -0.0402
x1 = 0.0972 | -0.0749
x1 = 0.1358 | -0.101
x1 = 0.1888 | -0.126
x1 = 0.2267 | -0.145
x1 = 0.2786 | -0.16
x1 = 0.3432 | -0.175
x1 = 0.3972 | -0.182
x1 = 0.4209 | -0.183
x1 = 0.4811 | -0.181
x1 = 0.5306 | -0.175
x1 = 0.5822 | -0.162
x1 = 0.6225 | -0.153
x1 = 0.6788 | -0.138
x1 = 0.7121 | -0.124
x1 = 0.7826 | -0.0967
x1 = 0.8127 | -0.0858
x1 = 0.8455 | -0.0712
